{
  "source": "patent US20240299393A1",
  "about": "“SMALL MOLECULE DISRUPTORS OF PROTEIN INTERACTIONS IN HISTONE DEACETYLASE COMPLEXES” (Dana-Farber Cancer Institute, Inc., priority 2021, published 2024)",
  "key": {"[1]": {"tested_on": "yeast S. cerevisiae Sin3 PAH1 and PAH3 domains", "assay": "Ligand-detected NMR, yeast Sin3 PAH1 and PAH3", "type": "binding", "conditions": "FIG. 27", "method": "(§1) Ligand-detected NMR experiments: all results were acquired using a 3 mm tube at 25° C. on a Bruker 600 MHz Avance II system equipped with a CPPTCI cryoprobe (Bruker BioSpin Corp.). In all experiments, the concentration of E6R was fixed at 300 μM (from a stock of 25 mM in deuterated DMSO) and the concentration of the protein at 10 μM. The volume of deuterated DMSO was kept constant (1.5%) in all tested samples. Right before the experiments, the compound and protein were diluted in 1×PBS containing 0.1% deuterated dithiothreitol (DTT) to a total volume of 200 μL. Samples were diluted by 5% with D2O for magnetic field lock. Spectra were acquired for ligand only, protein only, and ligand+protein. […] STD experiments [Mayer et al 2001] were acquired with 160 scans, with protein irradiation applied for 3 s at 0 ppm and −20 ppm for the on and off resonance experiments, respectively. On and off resonance spectra were collected and stored separately. One-dimensional CPMG-R2 edited experiments [Hajduk et al 1997] were collected for samples with and without proteins using seven CPMG delays (0, 25, 50, 100, 300, 500, and 800 ms) with four scans per delay. Proton spectra used to measure DLB and chemical shift perturbations in the absence and presence of the proteins were recorded with 16 scans using a recycle delay of 3 s. […]"}, "[2]": {"molecular_target": "T1, PAH2 domain of yeast Sin3 (Saccharomyces cerevisiae, UniProt P22579)", "T1 construct": "Residues 402-473 of S. cerevisiae Sin3 (PAH2 domain) were inserted into pET28PP, pMALC2XE, and pGEX6P2; made in house; host or cells: E. coli BL21 (DE3)", "T1 sequence (P22579 402-473)": "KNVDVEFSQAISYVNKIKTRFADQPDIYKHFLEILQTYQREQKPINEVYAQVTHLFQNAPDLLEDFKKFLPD", "assay": "Ligand-detected NMR (DLB, STD, CPMG-R2), yeast Sin3 PAH2", "type": "binding, S. cerevisiae", "conditions": "300 μM compound, 10 μM protein", "method": "as §1"}, "[3]": {"tested_on": "HDAC-regulated genes in spleen and frontal cortex", "assay": "Pilot RT-qPCR in spleen and frontal cortex of treated mice", "type": "in vivo, mouse", "conditions": "5, 15 or 50 mg/kg, chronic", "method": "For the pilot RT-qPCR experiment, in addition to the vehicle condition (ethanol 100%/kolliphor/saline 0.9% in a proportion of 1:1:14.4; for the 50 mg/kg dose, 14 μL NaOH 1M were also added), three doses (mg/kg) of E6R were tested: 5, 15, and 50, with 4 (vehicle) or 3 (E6R) animals per group. A dose of 50 mg/kg was picked to conduct further experiments. For the RNA-Seq experiment, E6R was dissolved in a vehicle solution containing saline 55% v/v, DMSO 34% v/v, ethanol 5% v/v, kolliphor EL (Sigma-Aldrich, MO, USA) 5% v/v, NaOH 1M 1% v/v. The vehicle group received the same solution. Animals were injected daily by intraperitoneal (I.P.) injection with 5 μL/g of the solution (50 mg/kg of the drug or vehicle) at 11 am for 10 days. Animal wellness was verified by daily visual inspection and weighing. […] On the 11th day, animals were sacrificed by bleeding via heart puncture under carbon dioxide anesthesia. The brains were quickly removed and the bilateral frontal cortex (bregma 1.90 to 1.40 mm) was dissected followed by total RNA extraction. The spleens were also collected in the pilot RT-qPCR experiments.\nQiagen™ RNeasy mini kits (Valencia, CA) were used following the manufacturer's protocol. […] Purity of the RNA preparation was determined as the 260/280 nm ratio with expected values between 2 and 2.3. […]"}},
  "note": "“Also recorded” adds a separate entry of the source.",
  "data": [
    {"smiles": "C[C@@H](NC(=O)c1c(O)n2ccccc2nc1=O)c1ccccc1", "note": "[E6R, 4-hydroxy-2-oxo-N—((R)-1-phenylethyl)-3,4-dihydro-2H-pyrido[, 2-a]pyrimidine-3-carboxamide]", "values": [
      {"measurement": "binding to other PAH domains of yeast Sin3 by NMR", "setting": "[1]", "value": "can bind"},
      {"measurement": "binding to yeast Sin3 PAH2 by NMR", "setting": "[2]", "value": "Sin3 PAH2 binder; also recorded: bound state"},
      {"measurement": "expression levels of tested genes in spleen and frontal cortex", "setting": "[3]", "value": "able to change expression levels"}
    ]}
  ]
}
